According to ChEMBL document CHEMBL5537159, “Discovery and SAR of JTE-151: A Novel RORγ Inhibitor for Clinical Development” (J Med Chem, 2024):

Key:
[1] = Lipophilicity, logD of compound by RP-HPLC analysis; type: physicochemical
[2] = Metabolic stability in human liver microsomes assessed as compound remaining at 5 umol/L measured after 60 mins by UPLC/MS analysis; type: ADME, Microsome; conditions: dose 5 µmol/L, read-out: Stability
[3] = Apparent permeability in human Caco-2 cells at 25 umol/L incubated for 2 hrs by LC/MS/MS analysis; type: ADME, cell-based; conditions: dose 25 µmol/L
[4] = Elimination half life in CD(SD) rat at 1 mg/kg, iv administered as single dose and measured after 24 hrs; type: ADME, organism-based; conditions: in vivo, read-out: beta t1/2 (converted)
[5] = Total body clearance in CD(SD) rat at 1 mg/kg, iv administered as single dose and measured after 24 hrs; type: ADME, organism-based; conditions: in vivo
[6] = Volume of distribution at steady state in CD(SD) rat at 1 mg/kg, iv administered as single dose and measured after 24 hrs; type: ADME, organism-based; conditions: in vivo, read-out: Vdss
[7] = AUCinfinity in CD(SD) rat at 3 mg/kg, po administered as single dose and measured after 24 hrs; type: ADME, organism-based; conditions: in vivo
[8] = MRT in CD(SD) rat at 3 mg/kg, po administered as single dose and measured after 24 hrs; type: ADME, organism-based; conditions: in vivo
[9] = Oral bioavailability in CD(SD) rat at 3 mg/kg administered as single dose and measured after 24 hrs; type: ADME, organism-based; conditions: in vivo
[10] = target: T1, Nuclear receptor ROR-gamma (Homo sapiens, UniProt P51449); experiment: Inhibition of GAL4 DNA-binding domain fused RORgamma (unknown origin) transfected in CHO-K1 cells incubated for 2 days by luciferase assay; type: cell-based
T1 sequence (P51449 whole entry): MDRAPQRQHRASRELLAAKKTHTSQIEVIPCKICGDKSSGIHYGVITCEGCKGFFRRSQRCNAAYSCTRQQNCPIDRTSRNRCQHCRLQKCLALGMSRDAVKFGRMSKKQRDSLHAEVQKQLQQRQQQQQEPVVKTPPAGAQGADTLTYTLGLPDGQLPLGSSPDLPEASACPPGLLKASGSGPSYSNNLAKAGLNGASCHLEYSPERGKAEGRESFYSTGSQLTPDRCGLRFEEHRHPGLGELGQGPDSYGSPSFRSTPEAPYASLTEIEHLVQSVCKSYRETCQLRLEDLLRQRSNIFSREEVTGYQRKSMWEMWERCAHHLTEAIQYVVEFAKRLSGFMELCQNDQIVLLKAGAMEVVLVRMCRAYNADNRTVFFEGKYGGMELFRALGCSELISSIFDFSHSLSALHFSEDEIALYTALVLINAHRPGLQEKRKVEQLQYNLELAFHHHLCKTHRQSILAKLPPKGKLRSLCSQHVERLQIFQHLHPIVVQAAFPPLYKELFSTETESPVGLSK

logD [1] | remaining at 1 h, 5 µM [2] [%] | Papp at 2 h, 25 µM [3] [×10⁻⁶ cm/s] | half-life [4] [h] | clearance [5] [mL/min/kg] | Vd [6] [L/kg] | AUC(0-inf) [7] [µM·h] | MRT [8] [h] | bioavailability [9] [%] | EC50 [10] [nM] | SMILES
4.2 | 86 | 30.9 | 1.5 | 16.5 | 0.67 | 2.8 | 3.6 | 46 |  | Cc1ccc(NC(=O)C[C@H](CCC(=O)O)c2nnn([C@H]3C[C@@H](CC(C)(C)C)C3)c2C2CC2)c(Cl)c1
4.5 | 64 | 17 |  |  |  |  |  |  | 63 | Cc1cc(C)c(C)c(NC(=O)C[C@H](CC(=O)O)c2noc([C@H]3C[C@@H](CC(C)C)C3)c2C2CC2)c1
4.6 | 69 | 29.4 |  |  |  |  |  |  | < 32 | Cc1ccc(NC(=O)C[C@H](Cc2nccs2)c2nnc([C@H]3C[C@@H](CC(C)C)C3)n2C2CC2)c(C)c1
4.3 | 73 | 22.6 | 1.5 | 30 | 1.4 | 2 | 2.5 | 61 | 22 | Cc1ccc(NC(=O)C[C@H](CCC(=O)O)n2nnc([C@H]3C[C@@H](CC(C)(C)C)C3)c2C2CC2)c(Cl)c1
